Reference: ChEMBL document CHEMBL1201862, “PubChem BioAssay data set” (2004)
Activity calls are given as the source filed them.

How the values were obtained:
[1] = target: T1, Polyadenylate-binding protein 1 (Homo sapiens, UniProt P11940); assay: PABP1 MLLE–PAM2 interaction inhibitors, dose response, miRNA deadenylation inhibitor project, biochemical, fluorescence polarization, Cy5-PAM2 peptide, secondary (AID 602260); assay type: functional; conditions: read-out: IC50_Mean
[2] = target: T1, Polyadenylate-binding protein 1; assay: PABP1 MLLE–PAM2 binding inhibitor potency, dose response, biochemical, fluorescence polarization, FITC-PAM2 peptide (AID 602259); assay type: functional; conditions: read-out: IC50_Mean
INS1 = assay: beta cell apoptosis inhibitors, cytokine rescue, dose response, luminescence, retest (AID 449756); assay type: functional, cell-based; conditions: Rattus norvegicus;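 note: cell death triggered by IL-1 beta plus TNF-alpha plus IFN-gamma mixture; protective hits raise ATP signal compared with cytokine alone wells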
[3] = target: T2, Corticotropin-releasing factor receptor 2/Corticotropin-releasing factor-binding protein (Homo sapiens, UniProt P24387+Q13324); assay: Dose Response confirmation of uHTS hits for small molecule antagonists of the CRF-binding protein and CRF-R2 receptor complex.; assay type: functional; conditions: read-out: IC50_Mean
T2 sequence (Q13324 whole entry): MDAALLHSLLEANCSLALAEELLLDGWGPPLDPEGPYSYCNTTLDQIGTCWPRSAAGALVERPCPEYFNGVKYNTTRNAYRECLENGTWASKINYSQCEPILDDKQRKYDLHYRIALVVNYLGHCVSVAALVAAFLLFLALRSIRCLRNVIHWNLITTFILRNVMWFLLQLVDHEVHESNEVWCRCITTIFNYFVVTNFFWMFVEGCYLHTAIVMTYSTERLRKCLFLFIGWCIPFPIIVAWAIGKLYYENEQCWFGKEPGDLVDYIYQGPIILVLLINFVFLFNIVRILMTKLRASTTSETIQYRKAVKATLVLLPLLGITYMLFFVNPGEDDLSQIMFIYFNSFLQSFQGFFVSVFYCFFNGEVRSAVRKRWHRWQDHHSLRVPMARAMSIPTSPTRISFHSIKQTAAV
T2 sequence (P24387 whole entry): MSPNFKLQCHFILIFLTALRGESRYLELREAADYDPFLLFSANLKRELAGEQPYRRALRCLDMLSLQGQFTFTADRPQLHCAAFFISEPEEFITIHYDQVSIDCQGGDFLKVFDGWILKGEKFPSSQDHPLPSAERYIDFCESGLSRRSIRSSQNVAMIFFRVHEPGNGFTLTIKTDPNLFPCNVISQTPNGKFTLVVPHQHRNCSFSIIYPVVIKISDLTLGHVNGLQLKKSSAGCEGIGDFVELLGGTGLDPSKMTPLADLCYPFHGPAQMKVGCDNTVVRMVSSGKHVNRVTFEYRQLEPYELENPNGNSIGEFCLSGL

[4] = target: T2, Corticotropin-releasing factor receptor 2/Corticotropin-releasing factor-binding protein; assay: activators of CRF receptor 2 with binding protein – uHTS hits, confirmation (AID 602473); assay type: functional; conditions: read-out: EC50_Mean
Fatty acid synthase [5] = target: T3, Fatty acid synthase (Homo sapiens, UniProt P49327); assay: FAS thioesterase domain inhibitors, dose response, biochemical, endpoint fluorescence intensity, uHTS hits (AID 624327); assay type: functional;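 note: fluorescence from hydrolysis of an O-methyl fluorescein acyl ester substrate by the enzyme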
T3 sequence (P49327 whole entry, the tested form may be a part): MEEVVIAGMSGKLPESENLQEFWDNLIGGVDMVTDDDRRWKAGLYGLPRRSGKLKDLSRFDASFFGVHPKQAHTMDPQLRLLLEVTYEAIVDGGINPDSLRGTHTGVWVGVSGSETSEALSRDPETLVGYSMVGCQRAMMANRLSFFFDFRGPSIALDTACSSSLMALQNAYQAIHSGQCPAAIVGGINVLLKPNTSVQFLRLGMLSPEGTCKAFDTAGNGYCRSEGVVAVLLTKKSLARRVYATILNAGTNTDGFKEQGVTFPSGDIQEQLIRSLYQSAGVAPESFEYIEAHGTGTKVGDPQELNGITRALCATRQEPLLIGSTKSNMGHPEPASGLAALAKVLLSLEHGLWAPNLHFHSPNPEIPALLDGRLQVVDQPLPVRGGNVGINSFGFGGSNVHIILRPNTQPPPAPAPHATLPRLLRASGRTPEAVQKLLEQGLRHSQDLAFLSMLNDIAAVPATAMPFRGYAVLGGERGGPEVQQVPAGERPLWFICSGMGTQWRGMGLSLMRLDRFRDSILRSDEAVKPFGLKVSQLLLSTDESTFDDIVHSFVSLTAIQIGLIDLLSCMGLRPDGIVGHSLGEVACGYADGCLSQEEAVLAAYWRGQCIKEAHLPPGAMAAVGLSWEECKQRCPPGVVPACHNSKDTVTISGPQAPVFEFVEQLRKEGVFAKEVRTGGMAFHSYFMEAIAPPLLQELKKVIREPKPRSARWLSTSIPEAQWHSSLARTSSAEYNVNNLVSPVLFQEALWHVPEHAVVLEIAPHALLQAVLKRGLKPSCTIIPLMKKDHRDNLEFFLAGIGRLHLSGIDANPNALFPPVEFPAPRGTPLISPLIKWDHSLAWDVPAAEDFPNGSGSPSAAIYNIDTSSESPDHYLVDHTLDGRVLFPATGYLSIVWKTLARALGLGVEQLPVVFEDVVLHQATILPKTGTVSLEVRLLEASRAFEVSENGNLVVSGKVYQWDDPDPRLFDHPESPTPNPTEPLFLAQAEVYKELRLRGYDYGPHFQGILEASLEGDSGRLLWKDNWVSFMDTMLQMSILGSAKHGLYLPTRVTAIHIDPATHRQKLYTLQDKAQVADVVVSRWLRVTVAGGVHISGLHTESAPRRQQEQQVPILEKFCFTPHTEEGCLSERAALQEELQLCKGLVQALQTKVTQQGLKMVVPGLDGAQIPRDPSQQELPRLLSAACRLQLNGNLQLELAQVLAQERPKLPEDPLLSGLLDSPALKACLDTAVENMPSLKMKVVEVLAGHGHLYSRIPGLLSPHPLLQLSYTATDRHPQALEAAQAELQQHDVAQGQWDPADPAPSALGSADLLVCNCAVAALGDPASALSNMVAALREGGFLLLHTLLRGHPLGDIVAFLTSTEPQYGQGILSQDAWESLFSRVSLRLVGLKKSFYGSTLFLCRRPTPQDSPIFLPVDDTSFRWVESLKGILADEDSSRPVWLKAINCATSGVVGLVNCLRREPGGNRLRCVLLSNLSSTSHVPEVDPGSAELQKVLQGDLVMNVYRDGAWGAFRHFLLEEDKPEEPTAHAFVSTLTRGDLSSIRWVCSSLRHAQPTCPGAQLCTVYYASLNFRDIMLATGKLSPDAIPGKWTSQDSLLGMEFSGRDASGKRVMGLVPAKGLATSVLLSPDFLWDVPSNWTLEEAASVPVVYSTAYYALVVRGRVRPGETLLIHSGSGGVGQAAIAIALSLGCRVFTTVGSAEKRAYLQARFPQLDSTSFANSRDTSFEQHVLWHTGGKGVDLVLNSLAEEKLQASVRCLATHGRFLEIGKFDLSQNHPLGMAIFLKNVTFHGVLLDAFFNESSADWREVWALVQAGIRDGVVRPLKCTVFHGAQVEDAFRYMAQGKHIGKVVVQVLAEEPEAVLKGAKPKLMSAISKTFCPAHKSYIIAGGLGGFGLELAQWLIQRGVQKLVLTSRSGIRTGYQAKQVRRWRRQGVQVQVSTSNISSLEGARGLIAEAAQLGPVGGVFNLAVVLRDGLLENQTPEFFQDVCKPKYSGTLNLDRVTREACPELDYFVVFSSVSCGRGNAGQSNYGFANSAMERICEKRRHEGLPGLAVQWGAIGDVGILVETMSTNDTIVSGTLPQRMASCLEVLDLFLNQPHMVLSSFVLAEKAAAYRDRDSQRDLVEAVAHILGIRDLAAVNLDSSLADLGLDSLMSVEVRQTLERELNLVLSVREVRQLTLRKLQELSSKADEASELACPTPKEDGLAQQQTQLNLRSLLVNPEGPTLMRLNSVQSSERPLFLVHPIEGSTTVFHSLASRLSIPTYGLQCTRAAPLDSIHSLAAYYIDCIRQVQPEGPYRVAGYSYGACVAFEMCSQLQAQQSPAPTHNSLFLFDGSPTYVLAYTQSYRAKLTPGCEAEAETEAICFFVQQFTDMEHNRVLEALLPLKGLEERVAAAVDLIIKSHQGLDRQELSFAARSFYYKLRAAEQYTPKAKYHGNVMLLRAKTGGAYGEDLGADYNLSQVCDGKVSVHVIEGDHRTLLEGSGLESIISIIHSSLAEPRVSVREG

Fatty acid synthase [6] = target: T3, Fatty acid synthase; assay: FAS thioesterase domain inhibitors, dose response, biochemical, kinetic fluorescence intensity (AID 624326); assay type: functional;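 note: rate of fluorescence rise from hydrolysis of a fluorogenic O-methyl fluorescein ester substrate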
[7] = growth suppression of beta-catenin-knockout colon cells, dose response, cell-based, HCT116, human colon tumor (AID 1045); assay type: functional;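 note: HCT116 colon tumor cells with beta catenin knocked out; cells exposed to compound for 60 hours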
[8] = growth suppression of PTEN-null colon cells, dose response, cell-based, HCT116 PTEN knockout (AID 1047); assay type: functional;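 note: HCT116 colon tumor cells with PTEN knocked out; cells exposed to compound for 60 hours before readout; potency for loss of cell viability measured by luminescence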
[9] = target: FAD-linked sulfhydryl oxidase ALR (Homo sapiens, UniProt P55789); assay: inhibitors of human ALR sulfhydryl oxidase, dose response, biochemical, H2O2 detection, luminescence, cherry-pick (AID 493248)
FAD-linked sulfhydryl oxidase ALR, sequence (P55789 whole entry): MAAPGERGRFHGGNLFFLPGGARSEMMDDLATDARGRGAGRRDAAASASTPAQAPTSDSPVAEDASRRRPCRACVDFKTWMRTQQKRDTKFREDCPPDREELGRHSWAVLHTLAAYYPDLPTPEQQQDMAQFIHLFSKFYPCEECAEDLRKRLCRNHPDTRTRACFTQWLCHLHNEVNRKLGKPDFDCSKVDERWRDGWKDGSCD

[10] = target: T4, Heat shock factor protein 1 (Mus musculus, UniProt P38532); assay: HSF1 potentiators in luciferase reporter cells, confirmation, cell-based, NIH3T3, luminescence, dose retest (AID 435004); assay type: functional;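 note: stress induced by proteasome inhibitor MG132 added 30 min after compound; luciferase reporter driven by HSF1 response element in NIH3T3 cells; actives raise luminescence as potentiators of the MG132 stress response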
T4 sequence (P38532 whole entry): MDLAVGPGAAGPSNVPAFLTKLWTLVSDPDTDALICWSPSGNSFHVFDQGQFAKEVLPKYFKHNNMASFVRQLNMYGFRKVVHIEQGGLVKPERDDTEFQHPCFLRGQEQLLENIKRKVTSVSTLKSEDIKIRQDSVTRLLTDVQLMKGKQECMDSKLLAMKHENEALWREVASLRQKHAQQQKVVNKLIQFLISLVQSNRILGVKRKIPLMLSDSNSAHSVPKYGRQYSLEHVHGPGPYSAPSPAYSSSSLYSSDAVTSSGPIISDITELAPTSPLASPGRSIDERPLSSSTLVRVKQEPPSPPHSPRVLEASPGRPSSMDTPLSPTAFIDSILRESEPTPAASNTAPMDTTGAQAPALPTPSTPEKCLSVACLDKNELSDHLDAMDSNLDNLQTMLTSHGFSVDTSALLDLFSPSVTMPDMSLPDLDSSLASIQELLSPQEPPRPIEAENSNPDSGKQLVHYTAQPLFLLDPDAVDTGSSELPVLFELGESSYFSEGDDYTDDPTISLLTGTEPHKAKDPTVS

cells = assay type: functional
[11] = cytotoxicity toward NIH3T3 fibroblasts, dose response, counter-screen, cell-based, ATP luminescence, mouse fibroblasts (AID 2010); assay type: functional;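 note: cells exposed to compound for about 90 hours before reading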
[12] = inhibitors of SNCA 5'UTR-driven reporter translation, confirmation, H4 neuroglioma cells, luminescence (AID 1988); assay type: functional, cell-based
[13] = inhibitors of intracellular T. cruzi replication, confirmation, NIH3T3 host cells, beta-gal luminescence (AID 2044); assay type: functional, cell-based;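 note: intracellular parasites grown in NIH/3T3 mouse fibroblasts as host cells; luminescent beta-galactosidase reporter signal from transgenic T. cruzi replicating inside host cells; inhibitors lower the luminescence signal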
[14] = inhibitors of firefly luciferase expression or activity, dose response, H4 neuroglioma cells, luminescence (AID 1990); assay type: functional, cell-based
[15] = Luminescence Cell-Based Dose Response HTS to Identify Inhibitors of 5'UTR Stem-Loop Driven Prion Protein mRNA Translation in H4 Neuroglioblastoma Cells. [Related pubchem assays: 1827 (Project Summary), 1813 (Primary HTS)]; assay type: functional
Protein skinhead-1 = target: T5, Protein skinhead-1 (Caenorhabditis elegans, UniProt P34707); assay type: functional
T5 sequence (P34707 whole entry): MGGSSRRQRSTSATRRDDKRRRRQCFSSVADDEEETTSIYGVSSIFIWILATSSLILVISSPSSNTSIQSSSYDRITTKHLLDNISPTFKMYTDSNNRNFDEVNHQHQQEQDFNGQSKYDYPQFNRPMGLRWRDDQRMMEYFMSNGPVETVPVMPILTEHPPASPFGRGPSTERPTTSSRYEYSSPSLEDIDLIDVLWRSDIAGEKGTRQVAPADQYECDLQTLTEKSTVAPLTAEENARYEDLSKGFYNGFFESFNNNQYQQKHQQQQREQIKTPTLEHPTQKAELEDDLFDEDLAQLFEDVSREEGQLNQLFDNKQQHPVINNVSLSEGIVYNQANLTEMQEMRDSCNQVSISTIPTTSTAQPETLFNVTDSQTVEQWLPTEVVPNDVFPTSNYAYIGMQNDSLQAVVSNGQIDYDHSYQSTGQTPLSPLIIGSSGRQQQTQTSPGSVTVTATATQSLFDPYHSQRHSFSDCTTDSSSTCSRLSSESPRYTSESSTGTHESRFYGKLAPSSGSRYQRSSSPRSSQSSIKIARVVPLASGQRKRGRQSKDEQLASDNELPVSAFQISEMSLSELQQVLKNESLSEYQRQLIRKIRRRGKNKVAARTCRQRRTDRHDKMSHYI

T1 sequence (P11940 whole entry): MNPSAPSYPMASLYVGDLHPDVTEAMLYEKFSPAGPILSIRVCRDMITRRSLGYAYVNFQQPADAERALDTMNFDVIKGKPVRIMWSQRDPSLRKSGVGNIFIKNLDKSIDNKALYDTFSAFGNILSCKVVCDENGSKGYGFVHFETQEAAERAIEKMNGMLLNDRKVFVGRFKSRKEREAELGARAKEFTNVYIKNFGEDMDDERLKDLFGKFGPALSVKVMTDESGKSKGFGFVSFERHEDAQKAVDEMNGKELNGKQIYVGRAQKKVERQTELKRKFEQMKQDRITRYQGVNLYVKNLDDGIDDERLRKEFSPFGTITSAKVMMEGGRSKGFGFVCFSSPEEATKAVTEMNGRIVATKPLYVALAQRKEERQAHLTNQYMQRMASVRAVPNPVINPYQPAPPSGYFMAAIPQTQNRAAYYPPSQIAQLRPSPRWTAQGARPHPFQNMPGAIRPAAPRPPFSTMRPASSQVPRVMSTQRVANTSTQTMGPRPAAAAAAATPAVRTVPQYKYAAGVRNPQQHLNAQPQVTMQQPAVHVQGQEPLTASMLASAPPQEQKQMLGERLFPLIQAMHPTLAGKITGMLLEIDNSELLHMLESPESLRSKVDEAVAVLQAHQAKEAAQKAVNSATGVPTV

Row | Compound | IC50 [1] | IC50 [2] | IC50 (Fatty acid synthase [5]) | IC50 (Fatty acid synthase [6]) | further results
1 | O=C(COc1ccc(C(=S)N2CCOCC2)cc1Cl)Nc1ccccc1Cl | > 66 µM (inactive) | > 66 µM (inactive) | – | – | –
2 | O=C(COc1ccc(Cl)cc1Cl)Nn1c(=S)[nH]c2ncccc2c1=O | > 66 µM (inactive) | > 66 µM (inactive) | – | – | –
3 | CCn1c2ccccc2c2nnc(SCc3ccc(C(=O)OC)o3)nc21 | > 66 µM (inactive) | > 66 µM (inactive) | – | – | –
4 | Cc1occc(=O)c1OC(=O)Nc1ccc(Cl)c(Cl)c1 | – | – | – | – | AC50 (INS1): 5.88 µM (active)
5 | c1ccc(Cc2nnc3sc(-c4ccncc4)nn23)cc1 | > 66 µM (inactive) | > 66 µM (inactive) | – | – | –
6 | COC(=O)C1CCN(C(=O)COC(=O)c2cc([N+](=O)[O-])ccc2N2CCOCC2)CC1 | – | – | 5.73 µM (active) | 3.96 µM (active) | IC50 [3]: > 47.1 µM (inactive); EC50 [4]: > 53 µM (inactive)
7 | Cc1cc(N2CCN(S(=O)(=O)c3ccc(Cl)cc3)CC2)c2ccccc2n1 | – | – | – | – | AC50 (INS1): 6.39 µM (active); EC50 [7]: 24.9 µM (active); EC50 [8]: 26.3 µM (active)
8 | CSc1nccn1CC(=O)Nc1ccc(F)cc1 | – | – | – | – | AC50 [9]: 2.88 µM (active)
9 | CCOC(=O)N1CCN(Cc2c(O)ccc3ccccc23)CC1 | > 66 µM (inactive) | > 66 µM (inactive) | – | – | –
10 | Cc1ccc(S(=O)(=O)N(C)C)cc1NC(S)=NC(C)CCCC(C)C (configuration not stated) | – | – | 12.3 µM (active) | 9.82 µM (active) | EC50 [10]: > 260 µM (inactive)
11 | CC(C)(C)c1ccc(OCCSc2nc3ccccc3n2CC(=O)O)cc1 | – | – | 2.39 µM (active) | 2.14 µM (active) | –
12 | COc1ccc(C2C=C(c3ccc(C)cc3)Nc3ncnn32)cc1 (configuration not stated) | > 66 µM (inactive) | > 66 µM (inactive) | – | – | –
13 | O=C(COC(=O)c1cc([N+](=O)[O-])ccc1N1CCCC1)Nc1ccccc1OC(F)F | – | – | 8.72 µM (active) | 9.1 µM (active) | –
14 | O=C(NC(=S)Nc1cc([N+](=O)[O-])ccc1O)c1cccnc1 | > 66 µM (inactive) | > 66 µM (inactive) | – | – | –
15 | O=C(Nc1nnc(-c2ccccc2Cl)o1)c1ccco1 | – | – | – | – | IC50 (cells): 11.8 µM (active)
16 | COc1cc(CNC(C)c2ccccc2)cc(Br)c1OCc1ccc(F)cc1 (configuration not stated) | – | – | – | – | AC50 (INS1): 6.99 µM (active); EC50 [11]: > 60 µM (not active); EC50 [12]: 17.7 µM (active); EC50 [13]: 2.41 µM (active); EC50 [14]: 19.2 µM (active); EC50 [15]: > 120 µM (not active); IC50 (Protein skinhead-1): 7.7 µM (active)
17 | COc1ccc(C(=O)OCC(=O)Nc2ccccc2)cc1[N+](=O)[O-] | – | – | 7.38 µM (active) | 9.96 µM (active) | –
18 | O=C(NC1CCCCC1)C1CC(=O)N(c2cccc([N+](=O)[O-])c2)C1 (configuration not stated) | – | – | 3.47 µM (active) | 1.89 µM (active) | –
